In brackets after ≈: the same amount, converted by molar mass. Activity calls are given as the source filed them. The rule behind the calls is not given here.
Tests used:
[1] = test system: Nakaseomyces glabratus; assay: Antifungal activity against FLC-resistant Candida glabrata 0161 infected in cyclophosphamide immunosuppressed ICR mouse model assessed as inhibition of fungal growth in kidney at 40 mg/kg,ip administrated for 5 days; type: functional, organism-based; conditions: time 5.0 day
[2] = test system: Nakaseomyces glabratus; assay: Antifungal activity against fluconazole-resistant Candida glabrata 0161 assessed as fungal growth inhibition incubated for 48 hrs by microplate reader assay; type: functional
[3] = test system: Nakaseomyces glabratus; assay: Synergistic antifungal activity against fluconazole-resistant Candida glabrata 0161 assessed as fractional inhibitory concentration index incubated for 48 hrs in presence of A6 compound by checkerboard microdilution method; type: functional
[4] = test system: Nakaseomyces glabratus; assay: Synergistic antifungal activity against fluconazole-resistant Candida glabrata 0161 assessed as fractional inhibitory concentration index incubated for 48 hrs in presence of A11 compound by checkerboard microdilution method; type: functional
[5] = test system: Nakaseomyces glabratus; assay: Synergistic antifungal activity against fluconazole-resistant Candida glabrata 0161 assessed as fractional inhibitory concentration index incubated for 48 hrs in presence of A1 compound by checkerboard microdilution method; type: functional
[6] = test system: Nakaseomyces glabratus; assay: Synergistic antifungal activity against fluconazole-resistant Candida glabrata 0161 assessed as fractional inhibitory concentration index incubated for 48 hrs in presence of A2 compound by checkerboard microdilution method; type: functional
[7] = test system: Nakaseomyces glabratus; assay: Synergistic antifungal activity against fluconazole-resistant Candida glabrata 0161 assessed as fractional inhibitory concentration index incubated for 48 hrs in presence of A3 compound by checkerboard microdilution method; type: functional
[8] = test system: Nakaseomyces glabratus; assay: Synergistic antifungal activity against fluconazole-resistant Candida glabrata 0161 assessed as fractional inhibitory concentration index incubated for 48 hrs in presence of A4 compound by checkerboard microdilution method; type: functional
[9] = test system: Nakaseomyces glabratus; assay: Synergistic antifungal activity against fluconazole-resistant Candida glabrata 0161 assessed as fractional inhibitory concentration index incubated for 48 hrs in presence of A5 compound by checkerboard microdilution method; type: functional
[10] = test system: Nakaseomyces glabratus; assay: Synergistic antifungal activity against fluconazole-resistant Candida glabrata 0161 assessed as fractional inhibitory concentration index incubated for 48 hrs in presence of A7 compound by checkerboard microdilution method; type: functional
[11] = test system: Nakaseomyces glabratus; assay: Synergistic antifungal activity against fluconazole-resistant Candida glabrata 0161 assessed as fractional inhibitory concentration index incubated for 48 hrs in presence of A8 compound by checkerboard microdilution method; type: functional
[12] = test system: Nakaseomyces glabratus; assay: Synergistic antifungal activity against fluconazole-resistant Candida glabrata 0161 assessed as fractional inhibitory concentration index incubated for 48 hrs in presence of A9 compound by checkerboard microdilution method; type: functional
[13] = test system: Nakaseomyces glabratus; assay: Synergistic antifungal activity against fluconazole-resistant Candida glabrata 0161 assessed as fractional inhibitory concentration index incubated for 48 hrs in presence of A10 compound by checkerboard microdilution method; type: functional
[14] = test system: Nakaseomyces glabratus; assay: Synergistic antifungal activity against fluconazole-resistant Candida glabrata 0161 assessed as fractional inhibitory concentration index incubated for 48 hrs in presence of A12 compound by checkerboard microdilution method; type: functional
[15] = test system: Nakaseomyces glabratus; assay: Synergistic antifungal activity against fluconazole-resistant Candida glabrata 0161 assessed as fractional inhibitory concentration index incubated for 48 hrs in presence of A13 compound by checkerboard microdilution method; type: functional
[16] = test system: Nakaseomyces glabratus; assay: Synergistic antifungal activity against fluconazole-resistant Candida glabrata 0161 assessed as fractional inhibitory concentration index incubated for 48 hrs in presence of A14 compound by checkerboard microdilution method; type: functional
[17] = test system: Nakaseomyces glabratus; assay: Synergistic antifungal activity against fluconazole-resistant Candida glabrata 0161 assessed as fractional inhibitory concentration index incubated for 48 hrs in presence of B1 compound by checkerboard microdilution method; type: functional
[18] = test system: Nakaseomyces glabratus; assay: Synergistic antifungal activity against fluconazole-resistant Candida glabrata 0161 assessed as fractional inhibitory concentration index incubated for 48 hrs in presence of B2 compound by checkerboard microdilution method; type: functional
[19] = test system: Nakaseomyces glabratus; assay: Synergistic antifungal activity against fluconazole-resistant Candida glabrata 0161 assessed as fractional inhibitory concentration index incubated for 48 hrs in presence of B3 compound by checkerboard microdilution method; type: functional
[20] = test system: Nakaseomyces glabratus; assay: Synergistic antifungal activity against fluconazole-resistant Candida glabrata 0161 assessed as fractional inhibitory concentration index incubated for 48 hrs in presence of B4 compound by checkerboard microdilution method; type: functional
[21] = test system: Nakaseomyces glabratus; assay: Synergistic antifungal activity against fluconazole-resistant Candida glabrata 0161 assessed as fractional inhibitory concentration index incubated for 48 hrs in presence of B5 compound by checkerboard microdilution method; type: functional
[22] = test system: Nakaseomyces glabratus; assay: Synergistic antifungal activity against fluconazole-resistant Candida glabrata 0161 assessed as fractional inhibitory concentration index incubated for 48 hrs in presence of B6 compound by checkerboard microdilution method; type: functional
[23] = test system: Nakaseomyces glabratus; assay: Synergistic antifungal activity against fluconazole-resistant Candida glabrata 0161 assessed as fractional inhibitory concentration index incubated for 48 hrs in presence of B7 compound by checkerboard microdilution method; type: functional
[24] = test system: Nakaseomyces glabratus; assay: Synergistic antifungal activity against fluconazole-resistant Candida glabrata 0161 assessed as fractional inhibitory concentration index incubated for 48 hrs in presence of B8 compound by checkerboard microdilution method; type: functional
[25] = test system: Nakaseomyces glabratus; assay: Antifungal activity against fluconazole-resistant Candida glabrata 0161 assessed as fungal growth inhibition at 16 ug/ml incubated for 48 hrs by time-growth curve assay; type: functional, organism-based; conditions: dose 16.0 µg/ml
[26] = test system: Nakaseomyces glabratus; assay: Antifungal activity against fluconazole-resistant Candida glabrata 0161 assessed as inhibition of fungal biofilm formation at 32 ug/ml incubated for 24 hrs by XXT reduction menadione assay; type: functional
[27] = test system: Nakaseomyces glabratus; assay: Synergistic antifungal activity against fluconazole-resistant Candida glabrata 0161 assessed as inhibition of fungal biofilm formation at 4 ug/ml incubated for 24 hrs in presence of compound B8 by XXT reduction menadione assay; type: functional
[28] = test system: Nakaseomyces glabratus; assay: Antifungal activity against fluconazole-resistant Candida glabrata 0161 assessed as inhibition of fungal mature biofilm formation at 0.25 to 64 ug/ml incubated for 24 hrs by XXT reduction menadione assay; type: functional, organism-based; conditions: dose 0.25-64 µg/ml
[29] = test system: Nakaseomyces glabratus; assay: Antifungal activity against fluconazole-resistant Candida glabrata 0161 assessed as downregulation of PDR1 gene expression at 32 ug/ml by RT-PCR analysis; type: functional, organism-based; conditions: dose 32.0 µg/ml
[30] = test system: Nakaseomyces glabratus; assay: Antifungal activity against fluconazole-resistant Candida glabrata 0161 assessed as downregulation of CDR1 gene expression at 32 ug/ml by RT-PCR analysis; type: functional, organism-based; conditions: dose 32.0 µg/ml
[31] = test system: Nakaseomyces glabratus; assay: Antifungal activity against fluconazole-resistant Candida glabrata 0161 assessed as downregulation of CDR2 gene expression at 32 ug/ml by RT-PCR analysis; type: functional, organism-based; conditions: dose 32.0 µg/ml
[32] = test system: Nakaseomyces glabratus; assay: Antifungal activity against fluconazole-resistant Candida glabrata 0161 assessed as downregulation of ERG11 gene expression at 32 ug/ml by RT-PCR analysis; type: functional, organism-based; conditions: dose 32.0 µg/ml
[33] = test system: Nakaseomyces glabratus; assay: Antifungal activity against FLC-resistant Candida glabrata 0161 infected in cyclophosphamide immunosuppressed ICR mouse model assessed as inhibition of fungal growth in kidney at 5 mg/kg,ip administrated for 5 days; type: functional, organism-based; conditions: time 5.0 day
[34] = test system: Nakaseomyces glabratus; assay: Antifungal activity against FLC-resistant Candida glabrata 0161 infected in cyclophosphamide immunosuppressed ICR mouse model assessed as pathological change in kidney at 5 mg/kg,ip administrated for 5 days by Hematoxylin and eosin staining based analysis; type: functional, organism-based; conditions: time 5.0 day

OC(Cn1cncn1)(Cn1cncn1)c1ccc(F)cc1F [FLUCONAZOLE]
Activity [1]: Active
MIC [2]: 32 mg/L (≈ 104 µM)
fractional inhibitory concentration index (FICI) [3]: 0.25
fractional inhibitory concentration index (FICI) [4]: 0.52
fractional inhibitory concentration index (FICI) [5]: 0.31
fractional inhibitory concentration index (FICI) [6]: 0.56
fractional inhibitory concentration index (FICI) [7]: 0.56
fractional inhibitory concentration index (FICI) [8]: 0.53
fractional inhibitory concentration index (FICI) [9]: 0.56
fractional inhibitory concentration index (FICI) [10]: 0.38
fractional inhibitory concentration index (FICI) [11]: 0.53
fractional inhibitory concentration index (FICI) [12]: 0.53
fractional inhibitory concentration index (FICI) [13]: 0.53
fractional inhibitory concentration index (FICI) [14]: 0.53
fractional inhibitory concentration index (FICI) [15]: 0.53
fractional inhibitory concentration index (FICI) [16]: 0.56
fractional inhibitory concentration index (FICI) [17]: 0.53
fractional inhibitory concentration index (FICI) [18]: 0.29
fractional inhibitory concentration index (FICI) [19]: 0.31
fractional inhibitory concentration index (FICI) [20]: 0.31
fractional inhibitory concentration index (FICI) [21]: 0.76
fractional inhibitory concentration index (FICI) [22]: 0.53
fractional inhibitory concentration index (FICI) [23]: 0.52
fractional inhibitory concentration index (FICI) [24]: 0.28
Activity [25]: inactive
inhibition at 32 µg/mL [26]: 39%
inhibition at 4 µg/mL [27]: 33%
inhibition [28]: Active
Activity [29]: inactive
Activity [30]: inactive
Activity [31]: inactive
Activity [32]: inactive
Activity [33]: inactive
Activity [34]: Active
